# Experimental data: US12527779B2, “Prostaglandin E2 (PGE2) EP4 receptor antagonists” (Domain Therapeutics, priority 2019, dated 2026)
# pIC50: −log10 of the molar value. “And” between values parts separate entries of the source, which are not always exact repeats. Equal values may be shown once.
# What was measured:
# [1] = target: T1, human EP4 (hEP4) receptor (Homo sapiens, UniProt P35408); assay: In vitro human EP4 functional antagonist activity using BRET biosensors (cAMP EPAC biosensor, TCS2510 stimulation); assay type: cell-based; conditions: antagonist activity vs EC60 TCS2510, hEP4 in HEK-293 T cells
# T1 construct: expressed in transfected cells; host or cells: HEK-293 T cells, transient co-transfection with polyethylenimine
# How it was run: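 HEK-293T cells transiently co-transfected with hEP4 and EPAC cAMP BRET biosensor (luciferase/GFP), assayed 48 h later in HEPES-buffered saline after 1 h at 22 °C. After 5 min with compound, cells stimulated with EC60 TCS2510 and BRET read for 10 min; IC50 from 10-point, 4.5-log variable-slope fits, duplicate, two experiments.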
# MCA205 tumor cells = assay: In vivo anti-tumoral activity of Example 166 in a MCA205 tumor model; set-up: species or system C57BL/6 mice
# Protocol: Sarcoma MCA205 tumor cell line was cultured in vitro in DMEM supplemented with 10% FBS, 1% Penicillin-Streptomycin, 1 mM HEPES. Before inoculation in mice, cell viability was assessed by flow cytometry analysis and viable cell gating. A cell suspension was prepared according to the viable cell count.
# Female C57BL/6 mice were inoculated subcutaneously in the right flank region with MCA205 tumor cells (0.5×10^6) in 0.1 ml of PBS for tumor development on day 1. Tumor volumes were measured thrice per week in two dimensions using a caliper, and the volume was expressed in mm^3 using the formula: “V=(L×W×W)/2”, where V is tumor volume, L is tumor length (the longest tumor dimension) and W is tumor width (the longest tumor dimension perpendicular to L). When the mean tumor size reached approximately 80 mm^3, mice were randomly allocated into groups (10 mice per group) and treated with or without an anti-PD-1 antibody (RPM1-14, 5 mg/kg, ip, on days 1, 4, 7, 10), with or without the compound of Example 166 (30 or 100 mg/kg, po, QD, 5% DMSO/95% (10% w/v solution of HP-3-CD in water) v/v) for 23 days).
# Animals were checked daily for morbidity and mortality. During routine monitoring, the animals were checked for any effects on tumor growth and treatments on behavior such as mobility, food and water consumption, body weight gain/loss (body weights were measured thrice per week), eye/hair matting and any other abnormalities.
# T1 sequence (P35408 whole entry): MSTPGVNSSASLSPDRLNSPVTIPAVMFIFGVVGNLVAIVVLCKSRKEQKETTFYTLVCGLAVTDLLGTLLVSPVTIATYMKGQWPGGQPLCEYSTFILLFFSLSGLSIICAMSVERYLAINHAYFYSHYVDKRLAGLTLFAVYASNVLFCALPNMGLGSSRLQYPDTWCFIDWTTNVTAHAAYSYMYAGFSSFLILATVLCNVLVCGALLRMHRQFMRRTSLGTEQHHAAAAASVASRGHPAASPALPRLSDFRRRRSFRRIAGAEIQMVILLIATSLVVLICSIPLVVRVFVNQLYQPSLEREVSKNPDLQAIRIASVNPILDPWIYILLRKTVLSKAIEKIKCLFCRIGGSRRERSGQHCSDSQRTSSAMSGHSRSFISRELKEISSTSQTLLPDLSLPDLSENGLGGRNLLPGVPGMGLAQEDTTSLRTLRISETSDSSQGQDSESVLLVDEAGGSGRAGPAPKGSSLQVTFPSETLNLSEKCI
structure (smiles),measurement,setting,value
"C[C@H](NC(=O)C1(N2CC[C@@H](Oc3cccc(C(F)(F)F)c3)C2)CC1)c1ccc(C(=O)O)cc1.Cl [Example 166, 4-[(1S)-1-[[1-[(3R)-3-[3-(Trifluoromethyl)phenoxy]pyrrolidin-1-yl]cyclopropane-1-carbonyl]amino]ethyl]benzoic acid, hydrochloride]",pIC50,[1],> 7.00
same,Tumor Growth Inhibition TGI (%),"MCA205 tumor cells; Example 166 30 mg/kg po QD + anti-PD1 antibody 5 mg/kg ip, day 1",0.1%
same,Tumor Growth Inhibition TGI (%),"MCA205 tumor cells; Example 166 30 mg/kg po QD + anti-PD1 antibody 5 mg/kg ip, day 3",8.3%
same,Tumor Growth Inhibition TGI (%),"MCA205 tumor cells; Example 166 30 mg/kg po QD + anti-PD1 antibody 5 mg/kg ip, day 6",30.6%
same,Tumor Growth Inhibition TGI (%),"MCA205 tumor cells; Example 166 30 mg/kg po QD + anti-PD1 antibody 5 mg/kg ip, day 8",47.4%
same,Tumor Growth Inhibition TGI (%),"MCA205 tumor cells; Example 166 30 mg/kg po QD + anti-PD1 antibody 5 mg/kg ip, day 10",58.6%
same,Tumor Growth Inhibition TGI (%),"MCA205 tumor cells; Example 166 30 mg/kg po QD + anti-PD1 antibody 5 mg/kg ip, day 13",55.7%
same,Tumor Growth Inhibition TGI (%),"MCA205 tumor cells; Example 166 30 mg/kg po QD + anti-PD1 antibody 5 mg/kg ip, day 15",49.3%
same,Tumor Growth Inhibition TGI (%),"MCA205 tumor cells; Example 166 30 mg/kg po QD + anti-PD1 antibody 5 mg/kg ip, day 17",52.2%
same,Tumor Growth Inhibition TGI (%),"MCA205 tumor cells; Example 166 30 mg/kg po QD, day 1",−6.1%
same,Tumor Growth Inhibition TGI (%),"MCA205 tumor cells; Example 166 30 mg/kg po QD, day 3",−6.3%
same,Tumor Growth Inhibition TGI (%),"MCA205 tumor cells; Example 166 30 mg/kg po QD, day 6",−22.4%
same,Tumor Growth Inhibition TGI (%),"MCA205 tumor cells; Example 166 30 mg/kg po QD, day 8",9.8%
same,Tumor Growth Inhibition TGI (%),"MCA205 tumor cells; Example 166 30 mg/kg po QD, day 10",10.2%
same,Tumor Growth Inhibition TGI (%),"MCA205 tumor cells; Example 166 30 mg/kg po QD, day 13",6.4%
same,Tumor Growth Inhibition TGI (%),"MCA205 tumor cells; Example 166 30 mg/kg po QD, day 15",4.3%
same,Tumor Growth Inhibition TGI (%),"MCA205 tumor cells; Example 166 30 mg/kg po QD, day 17",10.8%
same,Tumor Growth Inhibition TGI (%),"MCA205 tumor cells; Example 166 100 mg/kg po QD + anti-PD1 antibody 5 mg/kg ip, day 1",1.4%
same,Tumor Growth Inhibition TGI (%),"MCA205 tumor cells; Example 166 100 mg/kg po QD + anti-PD1 antibody 5 mg/kg ip, day 3",12.2%
same,Tumor Growth Inhibition TGI (%),"MCA205 tumor cells; Example 166 100 mg/kg po QD + anti-PD1 antibody 5 mg/kg ip, day 6",34.3%
same,Tumor Growth Inhibition TGI (%),"MCA205 tumor cells; Example 166 100 mg/kg po QD + anti-PD1 antibody 5 mg/kg ip, day 8",50.2%
same,Tumor Growth Inhibition TGI (%),"MCA205 tumor cells; Example 166 100 mg/kg po QD + anti-PD1 antibody 5 mg/kg ip, day 10",66.6%
same,Tumor Growth Inhibition TGI (%),"MCA205 tumor cells; Example 166 100 mg/kg po QD + anti-PD1 antibody 5 mg/kg ip, day 13",70.4%
same,Tumor Growth Inhibition TGI (%),"MCA205 tumor cells; Example 166 100 mg/kg po QD + anti-PD1 antibody 5 mg/kg ip, day 15",67.3%
same,Tumor Growth Inhibition TGI (%),"MCA205 tumor cells; Example 166 100 mg/kg po QD + anti-PD1 antibody 5 mg/kg ip, day 17, hydrochloride",68.0% and 68.1%
same,Tumor Growth Inhibition TGI (%),"MCA205 tumor cells; Example 166 100 mg/kg po QD, day 1",−0.7%
same,Tumor Growth Inhibition TGI (%),"MCA205 tumor cells; Example 166 100 mg/kg po QD, day 3",13.2%
same,Tumor Growth Inhibition TGI (%),"MCA205 tumor cells; Example 166 100 mg/kg po QD, day 6",12.1%
same,Tumor Growth Inhibition TGI (%),"MCA205 tumor cells; Example 166 100 mg/kg po QD, day 8",16.7%
same,Tumor Growth Inhibition TGI (%),"MCA205 tumor cells; Example 166 100 mg/kg po QD, day 10",25.7%
same,Tumor Growth Inhibition TGI (%),"MCA205 tumor cells; Example 166 100 mg/kg po QD, day 13",32.6%
same,Tumor Growth Inhibition TGI (%),"MCA205 tumor cells; Example 166 100 mg/kg po QD, day 15",23.6%
same,Tumor Growth Inhibition TGI (%),"MCA205 tumor cells; Example 166 100 mg/kg po QD, day 17, hydrochloride, 100 mg/kg",31.0%
